Experiments:
Hdh-sNPFR [1] = test: CRE-Luc reporter activation in Hdh-sNPFR-transfected HEK293 cells; type: cell-based, Haliotis discus hannai; details: peptide 10^−6 M, 6 h, no forskolin, n = 3
Experimental: (§1) HEK293 cells were grown in monolayer culture in Dulbecco’s modified Eagle medium (Gibco, Loughborough, UK) with 10% fetal bovine serum (HyClone, GE Healthcare, Chicago, IL, USA) and 1% penicillin/streptomycin (Invitrogen, Carlsbad, CA, USA) at 37°C, 5% CO2. HEK293 cells were seeded in 24-well plates and the transfection was performed using a formulated polyethylenimine solution (Sigma-Aldrich, St. Louis, MO, USA) as previously described. […] The cells were harvested with a cell lysis buffer (Promega, Madison, WI, USA) and luciferase activities were assayed using a microplate luminometer (Berthold, Bad Wildbad, Germany) and normalized by β-galactosidase values detected on a microplate reader (Tecan, Männedorf, Switzerland) at 405 nm.
(§2) Fig 5 Effect of LFRFa peptides on luciferase reporter activities in Hdh-sNPFR-expressing HEK293 cells. […] Intracellular cAMP accumulation was measured by CRE-Luc reporter activities in Hdh-sNPFR- or maternal plasmid pcDNA3-transfected HEK293 cells. The relative activities were determined in response to 10^−5 M of FKN and 10^−6 M of peptide as indicated. […]

Hdh-sNPFR [2] = test: SRE-Luc reporter activation in Hdh-sNPFR-transfected HEK293 cells; type: cell-based, Haliotis discus hannai; details: peptide 10^−6 M, 6 h, n = 3
Experimental: as §1, §2

Hdh-sNPFR [3] = test: Internalization of HA-tagged Hdh-sNPFR in HEK293 cells (immunocytochemistry, confocal microscopy); type: cell-based, Haliotis discus hannai; details: HEK293 cells with HA-tagged Hdh-sNPFR; peptide 10^−6 M; 5 and 30 min
Experimental: To detect Hdh-sNPFR expression, HEK293 cells were seeded on poly-D-lysine hydrobromide (Sigma-Aldrich)-coated coverslips in 24-well plates. The Hdh-sNPFR expression plasmid was transfected into HEK293 cells as described above. At approximately 30 h post-transfection, the cells were treated with LFRFa peptides and NPF for 5 min and 30 min, respectively. The cells were fixed with 4% paraformaldehyde for 10 min, followed by treatment with 1% bovine serum albumin in phosphate-buffered saline with 0.1% Tween 20 (PBST) for 30 min at room temperature to block non-specific binding. The HEK293 cells were treated with a monoclonal HA primary antibody (1:5000 dilution; H9658, Sigma-Aldrich) in PBST at 4°C for 16 h. After washing with PBST three times for 10 min each, the cells were treated with a secondary antibody [anti-mouse IgG (H+L), F(ab’)2Fragment (AlexaFluor 488 Conjugate), 1:2000 dilution; Cell Signaling, Danvers, MA, USA] in PBST at room temperature for 1 h in a light-blocked chamber. After washing with PBST three times for 10 min each, the cells were mounted with a mounting medium including DAPI (Abcam, Cambridge, UK). The expression of Hdh-sNPFR was monitored with a confocal laser-scanning microscope (FV3000, Olympus, Tokyo, Japan).
Fig 7 Subcellular localization and internalization of Hdh-sNPFR. […]

Pacific abalone = details: injection of NPF peptide; earlier paper of the authors; cited from earlier work
Description: Along with insect sNPFs, LFRFa peptides convert feeding motor programs from ingestive to egestive, depress feeding muscle contractions in Aplysia californica, and increase rectal contractions in Sepia officinalis.

Substance: QDAMLAPPDRPSEFRSPDQLRQYLKALNEYYAIVGRPRF-NH2 [NPF, Pacific abalone neuropeptide F, 39 amino acids, amidated, used as comparison peptide]
- Activation of CRE-Luc reporter (Hdh-sNPFR [1]): did not activate
- Activation of SRE-Luc reporter (Hdh-sNPFR [2]): did not activate
- Internalization of Hdh-sNPFR from cell membrane to cytoplasm (Hdh-sNPFR [3]): did not undergo redistribution from the cell surface to the cytoplasm
- Food consumption in Pacific abalone after NPF injection (Pacific abalone): increased food consumption
